Results taken from article PMC12692968, “Design, Synthesis, Molecular Docking, and Anticancer Activity of Chalcone Derivatives as VEGFR-2 Inhibitors” (Molecules, 2025).
Where two headings read alike, the source gives them in different places.

How the values were obtained:
[1] = system: human cervical squamous cell carcinoma cell line SiHa; assay: CCK-8 cytotoxicity assay, SiHa cells; type: cell-based; conditions: CCK-8, 48 h incubation, mean ± SD, n = 3
Method: (§1) The SiHa, K562, B16 and HK-2 cells were obtained from Wuhan Pricella Biotechnology Co., Ltd. (Wuhan, China). […] 2–5 × 10^3 cells were added to each well of a 96-well plate and incubated for 12 h, followed by the addition of the tested compounds. After incubation for 48 h, 10 μL of the CCK-8 solution was added to each well and incubated for another 2 h. The absorbance of each well was measured at 450 nm using an enzyme-linked immunosorbent assay (ELISA) reader. The experiments were replicated three times. The inhibition rate of cancer cells was calculated using the Formula (1). The half-maximal inhibitory concentration (IC50) value was calculated using GraphPad Prism 8.0 software.

[2] = system: human chronic myeloid leukemia cell line K562; assay: CCK-8 cytotoxicity assay, K562 cells; type: cell-based; conditions: CCK-8, 48 h incubation, mean ± SD, n = 3
Method: as §1

[3] = system: mouse melanoma cell line B16; assay: CCK-8 cytotoxicity assay, B16 cells; type: cell-based; conditions: CCK-8, 48 h incubation, mean ± SD, n = 3
Method: as §1

[4] = CCK-8 cytotoxicity assay, HK-2 cells; type: cell-based, human
Method: as §1, with “The cytotoxicity of synthesized compounds against HK-2 cells was also detected. […] The SiHa,” for “The SiHa,”

[5] = system: human renal epithelial cell line HK-2; assay: CCK-8 cytotoxicity assay, HK-2 cells; type: cell-based; conditions: Homo sapiens, Epithelial cell; CCK-8, 48 h incubation, mean ± SD, n = 3
Method: as §1, with “The cytotoxicity of synthesized compounds against HK-2 cells was also detected. […] The SiHa,” for “The SiHa,”

[6] = target: T1, VEGFR-2 (KDR) protein kinase (Homo sapiens, UniProt P35968); assay: VEGFR-2 (KDR) Kinase Assay Kit enzyme inhibition assay; type: biochemical; conditions: Kinase-Glo MAX, 30 °C 45 min, mean ± SD, n = 3
T1 construct: purchased BPS Biosciences, San Diego, CA, USA
T1 sequence (P35968 20-1356): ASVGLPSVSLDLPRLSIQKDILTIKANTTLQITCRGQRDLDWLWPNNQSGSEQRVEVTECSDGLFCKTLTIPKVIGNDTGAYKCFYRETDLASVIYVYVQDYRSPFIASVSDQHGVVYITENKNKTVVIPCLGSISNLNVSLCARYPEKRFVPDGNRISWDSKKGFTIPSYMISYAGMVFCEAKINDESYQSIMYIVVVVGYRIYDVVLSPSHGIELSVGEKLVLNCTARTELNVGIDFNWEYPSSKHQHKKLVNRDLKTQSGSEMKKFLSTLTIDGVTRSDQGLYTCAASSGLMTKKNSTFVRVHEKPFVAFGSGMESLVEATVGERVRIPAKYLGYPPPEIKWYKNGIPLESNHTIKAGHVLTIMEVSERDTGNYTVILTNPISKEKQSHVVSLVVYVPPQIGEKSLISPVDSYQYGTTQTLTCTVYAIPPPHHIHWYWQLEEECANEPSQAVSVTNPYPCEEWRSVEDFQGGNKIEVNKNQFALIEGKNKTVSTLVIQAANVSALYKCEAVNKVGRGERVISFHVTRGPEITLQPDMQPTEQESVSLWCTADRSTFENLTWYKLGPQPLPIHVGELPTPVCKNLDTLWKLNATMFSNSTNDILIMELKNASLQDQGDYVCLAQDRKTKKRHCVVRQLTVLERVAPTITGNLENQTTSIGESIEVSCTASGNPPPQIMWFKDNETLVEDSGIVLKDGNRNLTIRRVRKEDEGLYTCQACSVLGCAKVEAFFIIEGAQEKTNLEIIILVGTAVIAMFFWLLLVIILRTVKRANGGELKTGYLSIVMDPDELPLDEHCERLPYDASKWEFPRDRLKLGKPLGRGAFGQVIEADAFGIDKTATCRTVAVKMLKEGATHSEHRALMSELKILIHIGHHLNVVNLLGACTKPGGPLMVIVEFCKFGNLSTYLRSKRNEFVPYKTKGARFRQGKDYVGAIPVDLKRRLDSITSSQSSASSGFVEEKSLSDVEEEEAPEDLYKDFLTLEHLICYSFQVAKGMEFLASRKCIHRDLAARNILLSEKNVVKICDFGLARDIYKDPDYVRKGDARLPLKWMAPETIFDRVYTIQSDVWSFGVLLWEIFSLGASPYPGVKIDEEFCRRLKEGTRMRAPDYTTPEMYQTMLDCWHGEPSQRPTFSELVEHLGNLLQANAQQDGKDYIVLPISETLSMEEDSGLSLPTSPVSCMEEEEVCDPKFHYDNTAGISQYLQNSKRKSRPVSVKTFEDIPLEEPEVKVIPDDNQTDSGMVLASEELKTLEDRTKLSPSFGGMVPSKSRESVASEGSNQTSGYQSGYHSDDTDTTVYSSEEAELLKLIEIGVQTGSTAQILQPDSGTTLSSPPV
Method: Many studies have shown that abnormal VEGFR-2 signaling could induce proliferation of cervical squamous cell carcinoma cells, myeloid leukemia cancer cells, and melanoma cells. […] A VEGFR-2 (KDR) Kinase Assay Kit (BPS Biosciences, San Diego, CA, USA) was used to conduct a VEGFR-2 inhibition assay following the manufacturer’s protocol. Briefly, kinase buffer and ATP and PTK substrate (Poly-Glu,Tyr 4:1) were diluted with distilled water to prepare a master mix solution. The master mix solution, test sample, and VEGFR-2 (KDR) protein kinase (2 ng/μL) were added to a 96-well plate and incubated at 30 °C for 45 min. After incubation, Kinase-Glo™ MAX (BPS Biosciences) reagent was added to each well, and incubated for 15 min at room temperature. Then it was immediately detected with an ELISA reader. The experiments were replicated three times.

K562 cells [7] = assay: Annexin V apoptosis assay by flow cytometry; type: cell-based, human
From the text: Enhancing apoptotic cell death is a crucial way for anticancer drugs to eliminate cancer cells.
The sample was centrifuged to isolate the cells and the kit instructions were followed for subsequent processing. Finally, apoptosis was quantified using a flow cytometer (Cytek Northern Light 3 Laser 16V-14B-8R, Wuxi, China). The experiments were replicated three times.

K562 cells [8] = assay: Cell cycle analysis, PI staining, flow cytometry; type: cell-based, human; conditions: 5 μM, 24 h
Method: Cytotoxic compounds often inhibit cell proliferation by arresting the cell cycle at a specific phase.
The sample was then centrifuged (2000 rpm for 5 min), and the supernatant was aspirated. The fixed cells were resuspended in 0.5 mL of PI solution, cultured at 37 °C in the dark for 30 min, and then cultured at 4 °C in the dark for another 30 min Finally, the cell cycle sample was determined with a flow cytometer (Cytek Northern Light 3 laser 16V-14B-8R, Wuxi, China). The experiments were replicated three times.

VEGFR-2 = conditions: reported chalcone VEGFR-2 inhibitors, Figure 1; cited from earlier work
[9] = K562, 1.25, 2.5 and 5.0 μM, 24 h

O=C(Nc1ccc(C(=O)/C=C/c2cc(F)cc(F)c2)cc1)Nc1ccc(Cl)c(C(F)(F)F)c1 [Compound 2l, (E)-1-(4-chloro-3-(trifluoromethyl)phenyl)-3-(4-(3-(3,5-difluorophenyl)acryloyl)phenyl)urea]
IC50 [1]: 1.25 ± 0.13 µM
IC50 ([1]; Homo sapiens, SiHa, 48 h): 1.25 to 1.39 µM
IC50 [2]: 1.3 ± 0.07 µM
IC50 ([2]; Homo sapiens, K562, 48 h): 0.91 ± 0.07 µM
IC50 [3]: 1.39 ± 0.21 µM
IC50 ([3]; Mus musculus, B16, 48 h): 1.25 to 1.39 µM
selectivity ratio at 48 h ([4]; human (HK-2), mouse (B16), HK-2 cells versus B16 cells, HK-2 vs B16, read-out: selectivity toward B16, fold decrease in cytotoxicity against HK-2): 18.2
selectivity ratio at 48 h ([4]; human, HK-2 cells versus K562 cells, HK-2 vs K562, read-out: selectivity toward K562, fold decrease in cytotoxicity against HK-2): 19.5
selectivity ratio at 48 h ([4]; human, HK-2 cells versus SiHa cells, HK-2 vs SiHa, read-out: selectivity toward SiHa, fold decrease in cytotoxicity against HK-2): 20.3
IC50 [5]: 25.4 ± 1.47 µM
IC50 [6]: 0.42 ± 0.03 µM
viability at 1.25 µM (K562 cells [7]; Homo sapiens, K562, 1.25 μM, plot in Figure 2, read-out: Q4 viable cells): 92.8%
viability at 2.5 µM (K562 cells [7]; Homo sapiens, K562, 2.5 μM, plot in Figure 2, read-out: Q4 viable cells): 90.5%
viability at 5 µM (K562 cells [7]; Homo sapiens, K562, 5.0 μM, plot in Figure 2, read-out: Q4 viable cells): 38.8%
early apoptosis (K562 cells [7]; K562, 1.25 μM, 24 h): 5.80%
early apoptosis (K562 cells [7]; K562, 2.5 μM, 24 h): 8.34%
early apoptosis (K562 cells [7]; K562, 5.0 μM, 24 h): 57.79%
late apoptosis (K562 cells [7]; [9]): increased in a dose-dependent manner
necrosis of K562 cells (K562 cells [7]; [9]): Almost no necrosis
percentage of K562 cells in the G2/M phase (K562 cells [8]; DMSO 8.00%): 3.05%
percentage of K562 cells in the S phase (K562 cells [8]; DMSO 43.34%): 43.83%
percentage of K562 cells in the G1 phase (K562 cells [8]; DMSO 48.66%): 53.12%

CNC(=O)c1cc(Oc2ccc(C(=O)/C=C/c3cc(OC)c(OC)c(OC)c3)cc2)ccn1 [II]
IC50 (VEGFR-2): 3.2 µM

COc1cc(/C=C/C(=O)c2ccc(N3CCNCC3)cc2)ccc1F [I]
IC50 (VEGFR-2): 0.57 µM
